We go through 7 molecules from patent US10308911B2, “Methods for generating the inner ear and other cranial placode-derived tissues using pluripotent stem cells” (Indiana University Research & Technology Corporation, priority 2012, dated 2019).

Holding throughout (assay type): cell-based, mouse
For test [1], the system named is ESC aggregates. In words: Pre-placodal ectoderm induction in BMP/SB aggregates (marker expression, epithelial thickness). As for the experimental part:
On day 4-5, the differentiation medium is replaced with differentiation medium containing FGF2 in a final concentration range of about 5 ng/ml to about 100 ng/ml (with a preferred final concentration of about 25 ng/mL) or another FGF selected from FGF 1-FGF23), and a BMP inhibitor. In some embodiments, the BMP inhibitor is LDN-193189 (CAS No. 1062368-24-4 at about 100 nM). Alternatively, DMH1 (CAS No. 1206711-16-1) or Dorsomorphin (CAS No. […]) can be used as the BMP inhibitor were added to each well at 6× concentration in 25 μL of fresh media. The extracellular matrix protein concentration (e.g., MATRIGEL™ (a gelatinous protein mixture secreted by Engelbreth-Holm-Swarm (EHS) mouse sarcoma cells) at 2% (v/v)) is maintained throughout days 1-8. Culture of the non-neural ectoderm cells under these conditions yields preplacodal ectoderm, epithelium characterized by expression of at least one of Dlx3, Dlx5, Pax2, Pax8 and Eya1. The concentration of MATRIGEL™ (a gelatinous protein mixture secreted by Engelbreth-Holm-Swarm (EHS) mouse sarcoma cells) or another extracellular matrix protein, as mentioned herein, is maintained at 2% (v/v) throughout days 1-8.
(§1) The following small molecules and recombinant proteins were used: recombinant human BMP4 (10 ng/mL; Stemgent), human FGF2 (25 ng/mL; Peprotech), XAV939 (1 μM; Santa Cruz), SU5402 (10 μM; BioVision), SB-431542 (1 μM; Tocris Bioscience), and LDN-193189 (100 nM; Stemgent).
(§2) RNA was isolated using the RNeasy Minikit (Qiagen) and treated with TURBO DNase (Ambion). Single-stranded cDNA was synthesized using Omniscript reverse transcriptase (Qiagen) and Oligo-dT primers. All amplicons had standardized sizes of 100-110 bps. cDNA samples were amplified on an ABI PRISM 7900HT Sequence Detection System (Applied Biosystems) using the SYBR Green PCR Master Mix (Applied Biosystems). For each PCR reaction, a mixture containing cDNA template (5 ng), Master Mix, and forward and reverse primers (400 nM each) was treated with uracil N-glycosylase at 50° C. for 2 min before undergoing the following program: 1 cycles, 95° C., 10 min; 45 cycles, 95° C., 15 sec, 60° C., 1 min; 1 cycles, 95° C., 15 sec, 60° C., 15 sec, 95° C., 15 sec; 72° C., hold. Melting curve analysis was performed to confirm the authenticity of the PCR product. The mRNA level for each gene was calculated relative to L27 mRNA expression.
Aggregates were fixed with 4% paraformaldehyde. […]
The apparent thickness of epithelia was determined by analyzing cryosections stained with Ncad (Control) or Ecad antibodies (all other conditions) on days 3-6. […] For each aggregate, 3 serial sections were analyzed. Five points along the epithelium were randomly chosen and the thickness was measured using Nikon Elements image analysis tools.

In test [2] the test system is ESC aggregates. Description: Otic placode and otic vesicle induction (Pax2/Pax8/Ecad expression, vesicle counts). The protocol:
On day 8 of differentiation, cell aggregates are transferred to 24 well plates (Lipidure Coat, NOF; 4-8 aggregates per well) in N2 Medium containing 1% MATRIGEL™ (a gelatinous protein mixture secreted by Engelbreth-Holm-Swarm (EHS) mouse sarcoma cells) (v/v). N2 Medium contains Advanced DMEM/F12, 1×N2 Supplement, 1 mM Penicillin/Streptomycin or 50 μg/mL Normocin (Invivogen) and 1 mM GlutaMax.
as §1, §2
The percentage of epithelial cells expressing Pax8/Ecad was established by analyzing serial sections of day 6 and 8 aggregates. Data are representative of 6-8 aggregates from at least 3 separate experiments. For analysis of each aggregate, 5 cryosections were chosen at random positions along the z-axis of the aggregate. Using Nikon Elements or NIH ImageJ software, the Ecad^+ outer-epithelium was outlined and cell counting of DAPI and Pax8^+ nuclei along the length of the epithelium established a percentage for each cryosection.
Similarly, the number of Myo7a^+ hair cells in each day 20 aggregate was determined by analyzing 10 μm serial cryosections. Each biological sample represents the average number of hair cells counted in 4-6 cell aggregates and data are representative of the average from 3 separate experiments (15 aggregates total for each condition). Odd and even numbered cryosections were analyzed separately and averaged to avoid double counting. The number of vesicles was quantified similarly, but every third section was analyzed to avoid double counting and allow for analysis of three separate staining combinations. Vesicles with a long axis diameter larger than 30 μm were accounted for to avoid double counting.

For test [3], the system named is ESC aggregates. Description: Non-neural ectoderm induction in SFEBq 3D culture (qPCR, immunostaining). The protocol: In an exemplary embodiment using mES cells, during days 0-3, serum-free floating culture of embryoid body-like aggregate with quick reaggregation (SFEBq) to generate EBs is initiated by dissociation of adherent mES cells into a cell suspension by trypsinization (e.g., with 0.25% Trypsin-EDTA, and resuspended in “Differentiation Medium”. Differentiation Medium is composed of Glasgow Minimal Essential Medium (G-MEM) supplemented with 1.5% knockout serum replacement (KSR; Invitrogen), 0.1 mM non-essential amino acids, 1 mM sodium pyruvate, 1 mM Penicillin/Streptomycin and 1 mM 2-mercaptoethanol. Cells are then plated in 100 μl/well in a range of about 1,000-15,000 cells, but preferably about 3000 cells, a in 96-well low cell adhesion U-bottom plates. On day 1, half of the medium in each well is exchanged for fresh Differentiation Medium containing an extracellular matrix protein, e.g., MATRIGEL™ (a gelatinous protein mixture secreted by Engelbreth-Holm-Swarm (EHS) mouse sarcoma cells) (2% v/v final concentration), laminin (50-400 μg/ml), or laminin plus entactin (50-400 μg/ml each).
On day 3 after initiating formation of EBs, a BMP, e.g., BMP2, BMP4, or BMP7 and a TGFβ inhibitor are added to the culture medium. The concentration of BMP, e.g., BMP4, to be used in the method can range from at least about 1 ng/ml to about 50 ng/ml, e.g., about 2 ng/ml, 4 ng/ml, 5 ng/ml, 7 ng/ml, 12 ng/ml, 15 ng/ml, 20 ng/ml, 25 ng/ml, 32 ng/ml, 40 ng/ml, or another concentration of a BMP from at least about 1 ng/ml to about 50 ng/ml. In some embodiments, the BMP to be used is BMP4 at a concentration of about 10 ng/ml. BMP 4. In some embodiments, the TGFβ inhibitor to be used is SB 431542 (CAS No. 301836-41-9, at a final concentration of about 1 μM). Alternatively, any of the following TGFβ inhibitors may be used: A 83-01 (CAS No. 909910-43-6), GW 788388 (CAS No. 452342-67-5), LY 364947 (CAS No. 396129-53-6), RepSox (CAS No. 446859-33-2), SB 505124 (CAS No. 694433-59-5), SB 525334 (CAS No. 356559-20-1), or SD 208 (CAS No. […]) at a concentration of about 0.1 μM to about 5 μM.
as §1
RNA was isolated using the RNeasy Minikit (Qiagen) and treated with TURBO DNase (Ambion). Single-stranded cDNA was synthesized using Omniscript reverse transcriptase (Qiagen) and Oligo-dT primers. […] The mRNA level for each gene was calculated relative to L27 mRNA expression. […]
(In general: In qPCR the cycle at which signal appears reflects the starting amount.)

[4] abbreviates: qPCR of day 5 samples, 10 ng/mL BMP vs vehicle control.

“Also recorded” adds a separate entry of the source.

For `c1ccc2c(-c3cnn4cc(-c5ccc(N6CCNCC6)cc5)cnc34)ccnc2c1` [LDN, LDN-193189], in test [1] (BMP/SB aggregates), the “Sox1 expression after LDN treatment” value was “does not induce”. Besides, the “Dlx3 expression in BMP/SB aggregates after BMP inhibition” value in test [1] (LDN treatment on day 4.5) is “maintained expression of Dlx3”. Further, the “Dlx3 expression after LDN treatment” value in test [1] (treatment on or before day 4) is “suppresses”.

As to “FGF: recombinant human FGF2 (25 ng/mL; Peprotech)”, the “Pax8 expression versus FGF dosage” value in test [2] (qPCR, n=4, 25, 50 and 100 ng/mL not significantly different) is recorded as “dependent on FGF dosage”.

Regarding `Cc1c[nH]c(-c2cnc(NCCNc3ccc(C#N)cn3)nc2-c2ccc(Cl)cc2Cl)n1` [CHIR99021], the “abundance of Pax2/Ecad+ vesicles with a luminal diameter greater than 50 μm (large vesicles)” value in test [2] (CHIR99021 3 μM days 8-10, read on day 12) is on record as “higher abundance”.

`NC(=O)c1ccc(-c2nc(-c3ccc4c(c3)OCO4)c(-c3ccccn3)[nH]2)cc1` [SB, SB-431542]: the “level of brachyury expression induced by BMP” value in test [3] (SB added to BMP, n=3) is “decreases”.

As for `Oc1nc(-c2ccc(C(F)(F)F)cc2)nc2c1CSCC2` [XAV939], in test [2] (XAV939 (1 μM) from day 8-10, vesicles counted on day 12), the “number of prosensory vesicles” value is listed as “significantly decreased; also recorded: decreases”. The “prevalence of Pax2+ vesicles” value in test [2] (XAV939 from day 8-10) is given as “reduced”. For the same molecule, in test [2] (XAV939 on days 8-10), the “generation of otic vesicles following BMP/SB-FGF/LDN treatment” value is “blocked”.

For the molecule `Cc1c[nH]c(/C=C2\C(=O)Nc3ccccc32)c1CCC(=O)O` [SU5402], the epithelial thickening result in test [1] (SU5402 (10 μM) following BMP/SB-LDN treatment) was “abolishes epithelial thickening”.

B1: BMP4: recombinant human BMP4 (bone morphogenetic protein), 10 ng/mL; Stemgent (protein, UniProt P12644 293-408, looked up)
Bone morphogenetic protein 4: SPKHHSQRARKKNKNCRRHSLYVDFSDVGWNDWIVAPPGYQAFYCHGDCPFPLADHLNSTNHAIVQTLVNSVNSSIPKACCVPTELSAISMLYLDEYDKVVLKNYQEMVVEGCGCR
For the molecule B1, the “brachyury+ cells in aggregates” value in test [3] (day 5, BMP-treated aggregates) was 60.8±3.9%. Also, in test [3] (setting [4]), the “neuroectoderm marker Sox1 expression” value is “downregulated” and the “non-neural ectoderm marker Dlx3 expression” value is “upregulated”.
